ChEMBL document CHEMBL5543140 (J Med Chem, 2024)
The source made the active and inactive calls. The calls are words filed in the database; no cut-off is given here.

Tests used:
[1] = biological target: T1, 5-hydroxytryptamine receptor 2A (Homo sapiens, UniProt P28223); assay: Agonist activity at human 5-HT2A receptor expressed in HEK293 cells assessed as maximal IP2 production measured after 30 mins incubation by HTRF assay relative to control; format: functional, cell-based; conditions: filed as agonist
[2] = biological target: T1, 5-hydroxytryptamine receptor 2A; assay: Displacement of [3H]LSD from human 5-HT2A receptor expressed in HEK293 cell membrane incubated for 90 mins by microbeta liquid scintillation counting method; format: cell membranes
[3] = biological target: T1, 5-hydroxytryptamine receptor 2A; assay: Agonist activity at human 5-HT2A receptor expressed in HEK293 cells assessed as IP2 production measured after 30 mins incubation by HTRF assay; format: functional, cell-based
[4] = Lipophilicity, logP of the compound; format: physicochemical; conditions: octanol/water
Mus musculus [5] = assay: Psychedelic effect in C57BL/6J mouse assessed as number of head-twitch responses by visual observation at 3 to 30 mg/kg, po; format: functional, organism-based; conditions: dose 3-30 mg/kg
Mus musculus [6] = assay: Psychedelic effect in C57BL/6J mouse assessed as number of head-twitch responses by visual observation at 3 mg/kg, po measured for 3 mins at 5 to 25 min; format: functional; conditions: 0.05 h
[7] = biological target: T2, 5-hydroxytryptamine receptor 2C (Homo sapiens, UniProt P28335); assay: Displacement of [3H]LSD from human 5-HT2C receptor expressed in HEK293 cell membrane incubated for 90 mins by microbeta liquid scintillation counting method; format: cell membranes
T2 sequence (P28335 whole entry): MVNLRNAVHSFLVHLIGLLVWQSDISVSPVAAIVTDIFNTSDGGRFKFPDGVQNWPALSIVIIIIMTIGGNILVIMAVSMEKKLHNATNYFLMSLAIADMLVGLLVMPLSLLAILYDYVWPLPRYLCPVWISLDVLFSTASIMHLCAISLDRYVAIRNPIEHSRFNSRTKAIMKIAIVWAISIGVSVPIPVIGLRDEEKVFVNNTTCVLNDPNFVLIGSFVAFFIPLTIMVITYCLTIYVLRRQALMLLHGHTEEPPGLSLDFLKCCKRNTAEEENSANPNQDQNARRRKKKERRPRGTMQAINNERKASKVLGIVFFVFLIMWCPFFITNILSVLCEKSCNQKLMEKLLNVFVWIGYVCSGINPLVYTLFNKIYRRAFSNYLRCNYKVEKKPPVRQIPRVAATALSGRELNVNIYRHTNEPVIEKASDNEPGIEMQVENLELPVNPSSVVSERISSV

[8] = biological target: 5-hydroxytryptamine receptor 2B (Homo sapiens, UniProt P41595); assay: Displacement of [3H]LSD from human 5-HT2B receptor expressed in HEK293 cell membrane incubated for 90 mins by microbeta liquid scintillation counting method; format: cell membranes
Mus musculus [9] = assay: Psychedelic effect in C57BL/6J mouse assessed as number of head-twitch responses by visual observation at 3 mg/kg, po measured for 3 mins at 160 to 170 min; format: functional; conditions: 0.05 h
[10] = Metabolic stability in Sprague-Dawley rat liver microsomes assessed as deuteration effect measured upto 120 mins by LC-MS/MS analysis; format: ADME, Microsome; conditions: 2 h
[11] = Metabolic stability of the compound assessed as recombinant human MAO-mediated oxidative metabolism by measuring compound remaining measured upto 120 mins by LC-MS/MS analysis; format: ADME; conditions: 2 h

T1 sequence (P28223 whole entry): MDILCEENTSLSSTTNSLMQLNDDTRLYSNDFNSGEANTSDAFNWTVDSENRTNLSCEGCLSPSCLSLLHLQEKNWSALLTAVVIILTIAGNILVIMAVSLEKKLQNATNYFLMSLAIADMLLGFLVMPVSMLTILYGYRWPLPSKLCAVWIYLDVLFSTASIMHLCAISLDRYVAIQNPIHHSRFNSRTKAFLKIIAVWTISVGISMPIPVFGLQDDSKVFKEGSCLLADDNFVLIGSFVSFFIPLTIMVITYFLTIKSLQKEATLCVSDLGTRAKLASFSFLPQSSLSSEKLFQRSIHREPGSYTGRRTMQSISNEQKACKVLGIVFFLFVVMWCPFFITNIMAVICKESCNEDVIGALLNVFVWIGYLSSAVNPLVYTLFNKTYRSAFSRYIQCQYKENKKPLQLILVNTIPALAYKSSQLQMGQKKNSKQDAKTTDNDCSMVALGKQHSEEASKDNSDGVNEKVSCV
5-hydroxytryptamine receptor 2B, sequence (P41595 whole entry): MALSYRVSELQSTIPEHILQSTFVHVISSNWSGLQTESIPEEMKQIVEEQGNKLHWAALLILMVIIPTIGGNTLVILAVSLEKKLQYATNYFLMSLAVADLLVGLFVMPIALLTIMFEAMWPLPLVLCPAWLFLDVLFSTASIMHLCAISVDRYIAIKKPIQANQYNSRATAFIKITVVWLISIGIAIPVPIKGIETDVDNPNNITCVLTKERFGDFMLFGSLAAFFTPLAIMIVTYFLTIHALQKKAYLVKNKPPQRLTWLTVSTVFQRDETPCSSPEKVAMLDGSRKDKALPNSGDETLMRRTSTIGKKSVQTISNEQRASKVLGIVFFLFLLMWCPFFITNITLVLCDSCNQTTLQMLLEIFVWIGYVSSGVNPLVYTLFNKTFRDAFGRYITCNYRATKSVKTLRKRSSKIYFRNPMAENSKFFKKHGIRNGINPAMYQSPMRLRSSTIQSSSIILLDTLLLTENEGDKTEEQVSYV

Structure (SMILES)	Ki ([2]; read-out: Ki)	Activity (Mus musculus [6])	Ki [7]	Ki [8]	Activity (Mus musculus [9])	further results
C#CCCCSc1cc(OC)c(CCN)cc1OC	2.3 nM	–	–	–	–	Emax [1]: 78%; EC50 ([3]; read-out: EC50): 1.8 nM
COc1cc(OCCC(F)(F)F)c(OC)cc1CCN	477 nM	–	–	–	–	–
COc1cc(P(C)(C)=O)c(OC)cc1CCN.Cl	–	–	–	–	–	logP [4]: -1.67; EC50 ([3]; hek293): Not Active
COc1cc(SC(F)(F)F)c(OC)cc1CCNCC1CC1	8.9 nM	–	–	–	–	Emax [1]: 63%; Activity (Mus musculus [5]): inactive; EC50 ([3]; read-out: EC50): 48 nM
COc1cc(N(C(C)C)C(C)C)c(OC)cc1CCN.Cl.Cl	–	–	–	–	–	logP [4]: 2.7; EC50 ([3]; hek293): Not Active
COc1cc([S+]([O-])C(F)(F)F)c(OC)cc1CCN.Cl (stereo unspecified)	19 nM	17	21 nM	6.5 nM	18	–
COc1cc(C[C@H](C)N)c(O)cc1SC.Cl	–	–	–	–	–	Stability [10]: Stable; Stability [11]: Stable
COc1cc(SCC(F)(F)C(F)F)c(OC)cc1CCN.Cl	34 nM	3.1	11 nM	4.5 nM	5.6	Ki ([2]; read-out: pKi (converted)): 38 nM
Cl.[2H]C([2H])(N)Cc1cc(OC)c(SC)cc1OC	–	–	–	–	–	Stability [10]: Stable; Stability [11]: Stable
COc1cc(S(=O)(=O)CF)c(OC)cc1CCN.Cl	5.9 nM	1.7	26 nM	28 nM	2.3	Ki ([2]; read-out: pKi (converted)): 6.03 nM
COc1cc(S(=O)(=O)C(F)F)c(OC)cc1CCN.Cl	11 nM	5	83 nM	20 nM	1.7	–
COc1cc([S+]([O-])C(F)F)c(OC)cc1CCN.Cl (stereo unspecified)	27 nM	3	82 nM	26 nM	4	–
COc1cc(SC(F)(F)F)c(OC)cc1CC(C)N (stereo unspecified)	–	–	–	–	–	Emax [1]: 91%; EC50 ([3]; read-out: EC50): 5.4 nM
COc1cc(SC(F)F)c(OC)cc1CCN.Cl	–	33	16 nM	24 nM	17	Ki ([2]; read-out: pKi (converted)): 6.46 nM
COc1cc(C(=O)C(C)(C)C)c(OC)cc1CCN	–	–	–	–	–	logP [4]: 2.34; EC50 ([3]; read-out: EC50): 850 nM
C#CCSc1cc(OC)c(CCN)cc1OC	–	–	–	–	–	Emax [1]: 100%; EC50 ([3]; read-out: EC50): 0.67 nM
COc1cc(SCCC(F)F)c(OC)cc1CCN.Cl	23 nM	5	8.9 nM	6.8 nM	2.6	–
COc1cc(SC(C)(C)C)c(OC)cc1CCN	–	–	–	–	–	Activity (Mus musculus [5]): inactive; EC50 ([3]; read-out: EC50): 150 nM
COc1cc(SSC(F)(F)F)c(OC)cc1CCN.Cl	78 nM	1.8	67 nM	66 nM	3.4	–
COc1cc(SCCCF)c(OC)cc1CCN	–	7.4	6.9 nM	6.2 nM	4.7	–
COc1cc(SCCCCF)c(OC)cc1CCN	47 nM	–	–	–	–	–
COc1cc(SCCC(F)(F)F)c(OC)cc1CCN.Cl	10 nM	3.3	11 nM	5.5 nM	6.1	–
